According to patent publication US20030187003A1, “Pharmaceutical compositions and method for the treatment of retroviral infections” (priority 2000, published 2003):

Legend:
HIV-2 (EHO) = assay: inhibition of virus-induced cytopathicity in MT-4 cells, HIV-2 (EHO); type: cell-based; conditions: Human immunodeficiency virus 2, MT4, 120 h, read-out: EC50 HIV-2 EHO
SIV (MAC251) = assay: inhibition of virus-induced cytopathicity in MT-4 cells, SIV (MAC251); type: cell-based, Simian immunodeficiency virus; conditions: Simian immunodeficiency virus, MT4, 120 h, read-out: EC50 SIV MAC251
HIV-1 NL43/DS5000 = assay: microbe, parasite or virus in culture; type: cell-based
HIV-1 L6 = type: cell-based; conditions: L6 versus wild type strain L1
HIV-1(IIIB) = assay: time of addition experiment, viral p24 antigen production; type: cell-based; conditions: MT-4 cells, m.o.i. 0.5, 250 μM, p24 at 31 hours post-infection
Description: A time of addition experiment was carried out in order to investigate which step of the replicative cycle was inhibited by compound H. Briefly, this experiment determines how long the addition of an anti-HIV compound can be postponed before losing its antiviral activity in the viral replication cycle. MT-4 cells were infected with HIV-1(IIIB) at a multiplicity of infection (m.o.i.) of 0.5 in order to synchronize all steps of viral replication and the various antiviral test compounds were added at different times (ranging from 0 up to 26 hours) after infection. Viral p24 antigen production was determined 31 hours post-infection (using HIV-1 p24 Core Profile ELISA, Du Pont, Dreieich, Germany) and is expressed as the log10 of the p24 Ag content in pg/ml. Reference compounds with a known mode of action were included in this experiment. Dextran sulfate, a polyanion, interferes with binding of the virus to the cell. The nucleoside analogue AZT inhibits the reverse transcription process. Ritonavir is a proteolytic cleavage inhibitor. […]. Compound H was added at 250 μM. In FIG. 1 showing the results of this experiment, the following symbols were used: (●) for control, (▴) for dextran sulfate (20 μM), (▪) for AZT (1.9 μM), (▪) for ritonavir (2.8 μM) and (*) for compound H (250 μM).

integrase = target: T1, integrase (Human immunodeficiency virus type 1 group M subtype B, UniProt P04585); assay: kinetic cleavage assay, conversion of initial stable complex into cleaved product; type: biochemical, HIV-1; conditions: in the presence of 50 μM compound, added after preincubation with dextran sulfate
T1 construct: encoding HIV-1 IN (strain HTLV III); made in house; host or cells: E. coli PC1 (BL21(DE3)(pLysS) ΔendA::TcR)
Description: When dextran sulfate with a molecular weight of 5,000 was added at a final concentration of 0.3 μM, further binding of integrase to the oligonucleotide was blocked. At several periods of time, 5 μl aliquots were taken and the reaction was stopped using 5 μl formamide loading buffer (having the same composition as above). The rate constant for the conversion of ISC into the cleaved product can be calculated using the formula: A-Be^−kt. In order to examine the inhibitory effect of compound H on 3′-processing, we repeated the same experiment in the presence of 50 μM compound (added after preincubation, together with dextran sulfate) and compared the rate constants: In the absence of compound H, it was calculated at 0.152±0.038 min^−1 in its presence at 0.147±0.025 min^−1. This quite similar value rules out that compound H directly affects the catalysis of 3′-processing.

Compound O=[N+]([O-])c1ccc(C2c3c(O)nc(S)nc3Oc3nc(S)nc(O)c32)cc1 [compound H, 5-(4-nitrophenyl)-2,8-dithiol-4,6-dihydroxy-5H-pyrano[2,3-d:6,5-d′]dipyrimidine] has an EC50 (HIV-2 (EHO)) of 3.7 ± 0.1 µM, an EC50 (SIV (MAC251)) of 5.5 ± 0.9 µM and an EC50 (HIV-1 NL43/DS5000; Human immunodeficiency virus 1, NL43) of 19.4 ± 1.4 µM. The “fold increase in EC50” value (HIV-1 NL43/DS5000; NL43/DS5000 versus wild type strain NL4.3) was 1.3, the “activity against HIV-1 strain resistant to dextran sulfate” value (HIV-1 NL43/DS5000; in words) was “active” and the “fold increase in EC50” value (HIV-1 L6) was 2.8. The “time the addition can be postponed after virus infection” value (HIV-1(IIIB)) was 6 h and the “rate constant for the conversion of ISC into the cleaved product” value (integrase) was 0.147 ± 0.025 min⁻¹.
